Test results published in patent US20110046147A1, “17BETA-HYDROXYSTEROID DEHYDROGENASE TYPE 1 INHIBITORS FOR THE TREATMENT OF HORMONE-RELATED DISEASES” (UNIVERSITAT DES SAARLANDES, priority 2007, published 2011).

Experiments:
17β-HSD1 = biological target: T1, 17β-HSD1 (Homo sapiens, UniProt P14061); assay: Inhibition of 17β-HSD1 (estrone to estradiol, radio-HPLC); assay type: biochemical; conditions: for IC50: human placenta enzyme, 500 nM estrone, NADH 500 μM; for Selectivity IC50 (17β-HSD2)/IC50 (17β-HSD1): ratio of IC50 values
T1 construct: In both cases, human placenta served as the enzyme source; from tissue; host or cells: human placenta
T1 sequence (P14061 1-328): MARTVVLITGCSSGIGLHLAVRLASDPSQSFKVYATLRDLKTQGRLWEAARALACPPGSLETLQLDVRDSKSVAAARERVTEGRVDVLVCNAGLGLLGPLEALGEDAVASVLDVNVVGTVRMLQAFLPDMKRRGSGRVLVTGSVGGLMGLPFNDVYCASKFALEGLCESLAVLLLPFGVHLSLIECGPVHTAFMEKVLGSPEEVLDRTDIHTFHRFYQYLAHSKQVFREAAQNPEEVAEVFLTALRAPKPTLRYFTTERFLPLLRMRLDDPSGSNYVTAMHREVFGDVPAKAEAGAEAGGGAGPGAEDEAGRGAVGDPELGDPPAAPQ

CaCo2 transport assay = assay type: in vitro ADME; conditions: human, Caco-2; 50 μM in donor compartment; read-out: Papp [cm/sec ± rel. SD]
Method: (§1) Performance of selected compounds in a CaCo2 assay: Caco-2 cell culture and transport experiments were performed according to Yee (Yee, S., Pharm. Res., 14(6): 763-766 (1997)), but slight modifications were introduced. The cultivation times were reduced from 21 to 10 days by increasing the sowing density from 6.3·10^4 to 1.65·10^5 cells per well. […] The initial concentration of the compounds in the donor compartment was 50 μM (in buffer with 1% ethanol or DMSO). Samples were taken from the acceptor side after 60, 120 and 180 min and from the donor side after 0 and 180 min. For glycoprotein P (P-gp) studies, bidirectional experiments were performed. The absorptive and secretory permeabilities (Papp (a-b) and Papp (b-a)) were determined. Thus, erythromycin was used as a substrate, and verapamil was used as an inhibitor of P-gp. Each experiment was performed in triplicate. The integrity of the monolayer was determined by means of TEER (transepithelial electric resistance) and the permeability for each assay was determined using Lucifer Yellow. All samples of the CaCo-2 transport experiments were analyzed by means of LC/MS/MS after dilution with buffer (1:1 with 2% acetic acid). The apparent permeability coefficient (Papp) was calculated by means of the formula given below, where dQ/dt represents the recovery rate of the mass in the acceptor compartment, A represents the surface area of the transwell membrane, and c0 represents the initial concentration in the donor compartment.

CaCo-2 cells = assay: CaCo2 transport assay; assay type: in vitro ADME; conditions: 50 μM in donor compartment
Method: as §1

| SMILES | IC50 (17β-HSD1) | Selectivity IC50 (17β-HSD2)/IC50 (17β-HSD1) (17β-HSD1) | Papp at 180 min, 50 μM (CaCo2 transport assay) | Permeability (class in words) (CaCo-2 cells) | Papp [cm/sec ± rel. SD] (CaCo-2 cells) |
| --- | --- | --- | --- | --- | --- |
| Oc1ccc(-c2ccsc2-c2cccc(O)c2)cc1 [Compound 28, 3-[3-(4-Hydroxyphenyl)-2-thienyl]phenol] | 3400 nM | 0.5 | 11.5 ×10⁻⁶ cm/s | high |  |
| Oc1cccc(-c2ccc(-c3cccc(O)c3)cc2)c1 [Compound 42, [1,1′,4′,1″]Terphenyl-3,3′-diol] | 110 nM | 21 |  | high | (12.5 ± 9.0) · 10^−6 cm/sec |
